Experiments:
Assay in all cases: CETSA-MS, MDA-MB-231 intact cells
Format in all cases: cell-based
Conditions in all cases: 2 μM and 20 μM
ACAA1 = molecular target: T1, ACAA1 (Homo sapiens, UniProt P09110)
T1 construct: endogenous in cells; host or cells: MDA-MB-231
Procedure, shortened: (§1)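 Using whole MDA-MB-231 cells, treatment was followed by washing and graded heating. Centrifuged lysate supernatants were denatured, acetone-pelleted, digested and labeled; MS proteomics measured remaining soluble protein per temperature.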

APLP2 = molecular target: T2, APLP2 (Homo sapiens, UniProt Q06481)
T2 construct: endogenous in cells; host or cells: MDA-MB-231
Procedure, shortened: as §1

AXL = molecular target: T3, AXL (Homo sapiens, UniProt P30530)
T3 construct: endogenous in cells; host or cells: MDA-MB-231
Procedure, shortened: as §1

CCN1 = molecular target: T4, CCN1 (Homo sapiens, UniProt O00622)
T4 construct: endogenous in cells; host or cells: MDA-MB-231
T4 sequence (O00622 25-381): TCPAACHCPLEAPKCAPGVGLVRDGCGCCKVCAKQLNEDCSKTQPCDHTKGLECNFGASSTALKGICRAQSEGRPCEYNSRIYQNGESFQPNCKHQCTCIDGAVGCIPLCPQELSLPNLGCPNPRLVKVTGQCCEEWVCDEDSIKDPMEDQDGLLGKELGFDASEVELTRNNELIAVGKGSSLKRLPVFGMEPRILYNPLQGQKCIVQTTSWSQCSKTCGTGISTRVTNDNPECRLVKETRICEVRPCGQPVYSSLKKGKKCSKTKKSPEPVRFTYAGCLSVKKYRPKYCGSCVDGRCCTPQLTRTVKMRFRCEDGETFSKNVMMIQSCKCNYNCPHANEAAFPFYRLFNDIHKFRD
Procedure, shortened: as §1

CDK12 = molecular target: T5, CDK12 (Homo sapiens, UniProt Q9NYV4)
T5 construct: endogenous in cells; host or cells: MDA-MB-231
Procedure, shortened: as §1

CERS2 = molecular target: T6, CERS2 (Homo sapiens, UniProt Q96G23)
T6 construct: endogenous in cells; host or cells: MDA-MB-231
Procedure, shortened: as §1

CSNK2A2 = molecular target: T7, CSNK2A2 (Homo sapiens, UniProt P19784)
T7 construct: 148 targets unique to Compound 1 in MDA-MB-231 intact cells; endogenous in cells; host or cells: MDA-MB-231
T7 sequence (P19784 whole entry): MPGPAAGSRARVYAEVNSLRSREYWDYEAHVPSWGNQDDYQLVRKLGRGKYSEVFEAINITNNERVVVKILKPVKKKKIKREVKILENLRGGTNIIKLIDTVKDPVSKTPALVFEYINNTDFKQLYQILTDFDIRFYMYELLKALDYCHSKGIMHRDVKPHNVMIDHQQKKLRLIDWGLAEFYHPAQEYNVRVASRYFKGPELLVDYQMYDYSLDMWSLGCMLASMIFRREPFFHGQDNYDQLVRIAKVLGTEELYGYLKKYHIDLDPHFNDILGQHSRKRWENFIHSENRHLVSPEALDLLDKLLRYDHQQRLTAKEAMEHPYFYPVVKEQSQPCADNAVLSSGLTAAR
Procedure, shortened: as §1

CST3 = molecular target: T8, CST3 (Homo sapiens, UniProt P01034)
T8 construct: 148 targets unique to Compound 1 in MDA-MB-231 intact cells; endogenous in cells; host or cells: MDA-MB-231
Procedure, shortened: as §1

ECE1 = molecular target: T9, ECE1 (Homo sapiens, UniProt P42892)
T9 construct: 148 targets unique to Compound 1 in MDA-MB-231 intact cells; endogenous in cells; host or cells: MDA-MB-231
Procedure, shortened: as §1

EIF4G1 = molecular target: T10, EIF4G1 (Homo sapiens, UniProt Q04637)
T10 construct: endogenous in cells; host or cells: MDA-MB-231
Procedure, shortened: as §1

ELL = molecular target: T11, ELL (Homo sapiens, UniProt P55199)
T11 construct: 148 targets unique to Compound 1 in MDA-MB-231 intact cells; endogenous in cells; host or cells: MDA-MB-231
T11 sequence (P55199 whole entry): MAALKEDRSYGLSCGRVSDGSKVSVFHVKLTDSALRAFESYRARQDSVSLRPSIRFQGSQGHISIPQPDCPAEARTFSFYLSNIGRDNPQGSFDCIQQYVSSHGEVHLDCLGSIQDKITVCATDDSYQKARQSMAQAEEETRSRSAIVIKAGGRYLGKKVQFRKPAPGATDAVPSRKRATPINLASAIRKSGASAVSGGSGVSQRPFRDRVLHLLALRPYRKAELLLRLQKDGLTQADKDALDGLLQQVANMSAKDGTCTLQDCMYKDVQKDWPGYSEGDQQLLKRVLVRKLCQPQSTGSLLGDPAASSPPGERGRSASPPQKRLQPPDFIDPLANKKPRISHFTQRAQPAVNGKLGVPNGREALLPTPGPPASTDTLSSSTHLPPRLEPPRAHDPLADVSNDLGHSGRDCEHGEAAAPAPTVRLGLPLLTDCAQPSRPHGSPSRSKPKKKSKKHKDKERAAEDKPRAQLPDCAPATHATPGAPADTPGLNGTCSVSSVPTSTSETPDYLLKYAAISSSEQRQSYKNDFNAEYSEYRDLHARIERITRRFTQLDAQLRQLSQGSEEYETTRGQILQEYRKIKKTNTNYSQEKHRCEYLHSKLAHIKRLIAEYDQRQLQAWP
Procedure, shortened: as §1

FOS = molecular target: T12, FOS (Homo sapiens, UniProt P01100)
T12 construct: endogenous in cells; host or cells: MDA-MB-231
T12 sequence (P01100 whole entry): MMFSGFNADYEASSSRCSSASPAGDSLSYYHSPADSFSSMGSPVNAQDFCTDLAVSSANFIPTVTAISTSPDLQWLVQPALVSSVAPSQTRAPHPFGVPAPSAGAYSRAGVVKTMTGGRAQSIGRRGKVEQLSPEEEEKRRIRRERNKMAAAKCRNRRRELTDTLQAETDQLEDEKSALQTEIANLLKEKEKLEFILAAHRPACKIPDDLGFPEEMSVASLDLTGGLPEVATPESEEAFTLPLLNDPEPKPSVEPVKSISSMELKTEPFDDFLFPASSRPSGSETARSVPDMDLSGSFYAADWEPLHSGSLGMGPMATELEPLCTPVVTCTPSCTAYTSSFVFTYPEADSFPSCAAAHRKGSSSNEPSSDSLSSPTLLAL
Procedure, shortened: as §1

FOSB = molecular target: T13, FOSB (Homo sapiens, UniProt P53539)
T13 construct: endogenous in cells; host or cells: MDA-MB-231
Procedure, shortened: as §1

FOXK1 = molecular target: T14, FOXK1 (Homo sapiens, UniProt P85037)
T14 construct: endogenous in cells; host or cells: MDA-MB-231
T14 sequence (P85037 whole entry): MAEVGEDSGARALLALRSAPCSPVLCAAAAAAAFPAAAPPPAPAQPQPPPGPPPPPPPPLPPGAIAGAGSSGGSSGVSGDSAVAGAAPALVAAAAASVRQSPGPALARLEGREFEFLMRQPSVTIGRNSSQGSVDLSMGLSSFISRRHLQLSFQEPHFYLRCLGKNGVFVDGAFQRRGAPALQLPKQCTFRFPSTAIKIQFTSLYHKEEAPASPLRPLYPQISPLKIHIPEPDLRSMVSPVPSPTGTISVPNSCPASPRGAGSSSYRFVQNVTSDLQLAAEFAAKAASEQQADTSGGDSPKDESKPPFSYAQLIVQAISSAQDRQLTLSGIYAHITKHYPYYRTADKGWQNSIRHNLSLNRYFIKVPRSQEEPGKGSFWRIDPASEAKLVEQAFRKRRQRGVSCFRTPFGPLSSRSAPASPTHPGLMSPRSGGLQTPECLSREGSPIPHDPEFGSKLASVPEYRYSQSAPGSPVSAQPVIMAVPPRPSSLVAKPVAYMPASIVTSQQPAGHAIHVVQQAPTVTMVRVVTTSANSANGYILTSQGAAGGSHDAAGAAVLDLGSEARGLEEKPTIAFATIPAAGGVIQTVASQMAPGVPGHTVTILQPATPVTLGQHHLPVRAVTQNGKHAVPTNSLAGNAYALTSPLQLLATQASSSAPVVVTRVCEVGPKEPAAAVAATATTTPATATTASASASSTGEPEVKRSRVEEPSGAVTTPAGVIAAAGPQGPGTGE
Procedure, shortened: as §1

GSKIP = molecular target: T15, GSKIP (Homo sapiens, UniProt Q9P0R6)
T15 construct: 148 targets unique to Compound 1 in MDA-MB-231 intact cells; endogenous in cells; host or cells: MDA-MB-231
Procedure, shortened: as §1

HNRNPA3 = molecular target: T16, HNRNPA3 (Homo sapiens, UniProt P51991)
T16 construct: 148 targets unique to Compound 1 in MDA-MB-231 intact cells; endogenous in cells; host or cells: MDA-MB-231
Procedure, shortened: as §1

IFT52 = molecular target: T17, IFT52 (Homo sapiens, UniProt Q9Y366)
T17 construct: endogenous in cells; host or cells: MDA-MB-231
Procedure, shortened: as §1

LEO1 = molecular target: T18, LEO1 (Homo sapiens, UniProt Q8WVC0)
T18 construct: endogenous in cells; host or cells: MDA-MB-231
Procedure, shortened: as §1

LOXL2 = molecular target: T19, LOXL2 (Homo sapiens, UniProt Q9Y4K0)
T19 construct: endogenous in cells; host or cells: MDA-MB-231
Procedure, shortened: as §1

MAP3K20 = molecular target: T20, MAP3K20 (Homo sapiens, UniProt Q9NYL2)
T20 construct: endogenous in cells; host or cells: MDA-MB-231
T20 sequence (Q9NYL2 whole entry): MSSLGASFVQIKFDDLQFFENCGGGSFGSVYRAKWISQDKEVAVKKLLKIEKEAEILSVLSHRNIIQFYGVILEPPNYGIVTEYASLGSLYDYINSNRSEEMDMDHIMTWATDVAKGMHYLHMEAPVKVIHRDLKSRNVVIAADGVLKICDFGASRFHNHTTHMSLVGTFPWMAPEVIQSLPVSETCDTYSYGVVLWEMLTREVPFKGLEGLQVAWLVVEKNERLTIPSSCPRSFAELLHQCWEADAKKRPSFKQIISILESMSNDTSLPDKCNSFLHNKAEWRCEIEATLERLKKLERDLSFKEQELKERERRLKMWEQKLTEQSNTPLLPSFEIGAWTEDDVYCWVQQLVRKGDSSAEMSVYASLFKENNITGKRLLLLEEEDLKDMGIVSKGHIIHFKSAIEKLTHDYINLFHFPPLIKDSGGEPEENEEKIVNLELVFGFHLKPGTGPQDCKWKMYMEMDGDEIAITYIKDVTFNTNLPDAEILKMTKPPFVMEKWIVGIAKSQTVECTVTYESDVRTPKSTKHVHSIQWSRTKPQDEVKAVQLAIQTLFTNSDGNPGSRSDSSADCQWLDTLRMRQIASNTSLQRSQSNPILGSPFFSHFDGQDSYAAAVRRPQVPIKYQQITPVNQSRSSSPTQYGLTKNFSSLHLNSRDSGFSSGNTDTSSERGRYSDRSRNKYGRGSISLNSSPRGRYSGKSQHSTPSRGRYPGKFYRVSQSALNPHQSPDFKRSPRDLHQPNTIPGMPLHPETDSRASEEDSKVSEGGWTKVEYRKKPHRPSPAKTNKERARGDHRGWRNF
Procedure, shortened: as §1

MLEC = molecular target: T21, MLEC (Homo sapiens, UniProt Q14165)
T21 construct: endogenous in cells; host or cells: MDA-MB-231
Procedure, shortened: as §1

MPHOSPH8 = molecular target: T22, MPHOSPH8 (Homo sapiens, UniProt Q99549)
T22 construct: endogenous in cells; host or cells: MDA-MB-231
Procedure, shortened: as §1

NRP1 = molecular target: T23, NRP1 (Homo sapiens, UniProt O14786)
T23 construct: endogenous in cells; host or cells: MDA-MB-231
Procedure, shortened: as §1

PIK3C3 = molecular target: T24, PIK3C3 (Homo sapiens, UniProt Q8NEB9)
T24 construct: endogenous in cells; host or cells: MDA-MB-231
Procedure, shortened: as §1

PIP4K2A = molecular target: T25, PIP4K2A (Homo sapiens, UniProt P48426)
T25 construct: endogenous in cells; host or cells: MDA-MB-231
Procedure, shortened: as §1

PIP4P2 = molecular target: T26, PIP4P2 (Homo sapiens, UniProt Q8N4L2)
T26 construct: endogenous in cells; host or cells: MDA-MB-231
T26 sequence (Q8N4L2 whole entry): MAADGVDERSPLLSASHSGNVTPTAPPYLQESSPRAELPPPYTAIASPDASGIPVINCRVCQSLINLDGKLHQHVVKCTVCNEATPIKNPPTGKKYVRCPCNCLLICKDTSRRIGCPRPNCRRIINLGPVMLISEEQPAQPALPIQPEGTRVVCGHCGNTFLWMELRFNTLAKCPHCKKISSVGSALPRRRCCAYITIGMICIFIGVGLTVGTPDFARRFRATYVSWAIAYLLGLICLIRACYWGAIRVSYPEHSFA
Procedure, shortened: as §1

PRPF4B = molecular target: T27, PRPF4B (Homo sapiens, UniProt Q13523)
T27 construct: endogenous in cells; host or cells: MDA-MB-231
Procedure, shortened: as §1

PTX3 = molecular target: T28, PTX3 (Homo sapiens, UniProt P26022)
T28 construct: endogenous in cells; host or cells: MDA-MB-231
Procedure, shortened: as §1

RPS6KA3 = molecular target: T29, RPS6KA3 (Homo sapiens, UniProt P51812)
T29 construct: endogenous in cells; host or cells: MDA-MB-231
Procedure, shortened: as §1

RRAS2 = molecular target: T30, RRAS2 (Homo sapiens, UniProt P62070)
T30 construct: endogenous in cells; host or cells: MDA-MB-231
Procedure, shortened: as §1

SHCBP1 = molecular target: T31, SHCBP1 (Homo sapiens, UniProt Q8NEM2)
T31 construct: endogenous in cells; host or cells: MDA-MB-231
Procedure, shortened: as §1

SIK2 = molecular target: T32, SIK2 (Homo sapiens, UniProt Q9H0K1)
T32 construct: endogenous in cells; host or cells: MDA-MB-231
Procedure, shortened: as §1

STK10 = molecular target: T33, STK10 (Homo sapiens, UniProt O94804)
T33 construct: endogenous in cells; host or cells: MDA-MB-231
Procedure, shortened: as §1

WTAP = molecular target: T34, WTAP (Homo sapiens, UniProt Q15007)
T34 construct: endogenous in cells; host or cells: MDA-MB-231
T34 sequence (Q15007 whole entry): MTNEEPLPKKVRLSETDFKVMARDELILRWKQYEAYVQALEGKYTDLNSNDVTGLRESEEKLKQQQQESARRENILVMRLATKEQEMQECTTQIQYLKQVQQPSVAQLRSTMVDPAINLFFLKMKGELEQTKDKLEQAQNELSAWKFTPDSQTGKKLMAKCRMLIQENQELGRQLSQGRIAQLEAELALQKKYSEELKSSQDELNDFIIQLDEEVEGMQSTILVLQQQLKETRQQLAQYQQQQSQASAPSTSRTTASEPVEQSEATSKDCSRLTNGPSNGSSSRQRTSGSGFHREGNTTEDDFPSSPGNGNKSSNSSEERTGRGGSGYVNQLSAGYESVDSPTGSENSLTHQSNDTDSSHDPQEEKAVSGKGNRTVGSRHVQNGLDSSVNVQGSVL
Procedure, shortened: as §1

ZFR = molecular target: T35, ZFR (Homo sapiens, UniProt Q96KR1)
T35 construct: endogenous in cells; host or cells: MDA-MB-231
T35 sequence (Q96KR1 whole entry): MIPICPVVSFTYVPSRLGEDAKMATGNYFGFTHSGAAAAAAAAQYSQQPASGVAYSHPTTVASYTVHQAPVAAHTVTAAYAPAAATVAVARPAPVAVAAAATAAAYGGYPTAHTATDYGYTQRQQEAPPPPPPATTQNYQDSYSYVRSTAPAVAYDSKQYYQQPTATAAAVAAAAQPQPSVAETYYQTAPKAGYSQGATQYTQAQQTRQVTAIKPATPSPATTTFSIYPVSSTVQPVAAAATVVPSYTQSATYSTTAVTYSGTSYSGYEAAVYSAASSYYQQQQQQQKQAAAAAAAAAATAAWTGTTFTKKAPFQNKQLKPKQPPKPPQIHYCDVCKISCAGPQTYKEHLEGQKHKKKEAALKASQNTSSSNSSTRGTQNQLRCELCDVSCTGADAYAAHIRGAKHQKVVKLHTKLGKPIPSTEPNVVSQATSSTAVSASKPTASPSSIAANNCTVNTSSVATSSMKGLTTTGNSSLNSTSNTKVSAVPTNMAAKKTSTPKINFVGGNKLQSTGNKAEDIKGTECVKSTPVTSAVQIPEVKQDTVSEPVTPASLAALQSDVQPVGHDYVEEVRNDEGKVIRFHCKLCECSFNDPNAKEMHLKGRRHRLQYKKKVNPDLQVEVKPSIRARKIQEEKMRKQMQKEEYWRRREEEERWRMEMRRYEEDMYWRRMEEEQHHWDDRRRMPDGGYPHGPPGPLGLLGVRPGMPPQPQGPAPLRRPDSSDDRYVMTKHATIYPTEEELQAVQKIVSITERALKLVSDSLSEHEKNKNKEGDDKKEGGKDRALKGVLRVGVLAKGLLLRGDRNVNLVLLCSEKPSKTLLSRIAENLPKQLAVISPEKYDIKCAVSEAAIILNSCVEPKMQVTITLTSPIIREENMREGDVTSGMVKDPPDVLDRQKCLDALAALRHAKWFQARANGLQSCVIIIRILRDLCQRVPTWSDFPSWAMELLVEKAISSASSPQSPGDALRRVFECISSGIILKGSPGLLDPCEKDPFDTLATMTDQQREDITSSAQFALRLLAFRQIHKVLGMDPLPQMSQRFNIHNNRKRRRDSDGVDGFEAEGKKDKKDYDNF
Procedure, shortened: as §1

ZNF608 = molecular target: T36, ZNF608 (Homo sapiens, UniProt Q9ULD9)
T36 construct: endogenous in cells; host or cells: MDA-MB-231
Procedure, shortened: as §1

CN1CCN(c2ccc(Nc3ncc4cc(C#N)c(=O)n(C5CCCC5)c4n3)cc2)CC1 [Compound 1, 8-cyclopentyl-2-((4-(4-methylpiperazin-1-yl)phenyl)amino)-7-oxo-7,8-dihydropyrido[2,3-d]pyrimidine-6-carbonitrile]
Group (CETSA-MS thermal shift) (ACAA1): Destabilization
Group (CETSA-MS thermal shift) (APLP2): Stabilization
Group (CETSA-MS thermal shift) (AXL): Stabilization
Group (CETSA-MS thermal shift) (CCN1): Stabilization
Group (CETSA-MS thermal shift) (CDK12): Destabilization
Group (CETSA-MS thermal shift) (CERS2): Stabilization
Group (CETSA-MS thermal shift) (CSNK2A2): Stabilization
Group (CETSA-MS thermal shift) (CST3): Stabilization
Group (CETSA-MS thermal shift) (ECE1): Stabilization
Group (CETSA-MS thermal shift) (EIF4G1): Destabilization
Group (CETSA-MS thermal shift) (ELL): Stabilization
Group (CETSA-MS thermal shift) (FOS): Destabilization
Group (CETSA-MS thermal shift) (FOSB): Destabilization
Group (CETSA-MS thermal shift) (FOXK1): Destabilization
Group (CETSA-MS thermal shift) (GSKIP): Stabilization
Group (CETSA-MS thermal shift) (HNRNPA3): Stabilization
Group (CETSA-MS thermal shift) (IFT52): Stabilization
Group (CETSA-MS thermal shift) (LEO1): Stabilization
Group (CETSA-MS thermal shift) (LOXL2): Stabilization
Group (CETSA-MS thermal shift) (MAP3K20): Destabilization
Group (CETSA-MS thermal shift) (MLEC): Stabilization
Group (CETSA-MS thermal shift) (MPHOSPH8): Stabilization
Group (CETSA-MS thermal shift) (NRP1): Stabilization
Group (CETSA-MS thermal shift) (PIK3C3): Stabilization
Group (CETSA-MS thermal shift) (PIP4K2A): Stabilization
Group (CETSA-MS thermal shift) (PIP4P2): Stabilization
Group (CETSA-MS thermal shift) (PRPF4B): Stabilization
Group (CETSA-MS thermal shift) (PTX3): Stabilization
Group (CETSA-MS thermal shift) (RPS6KA3): Destabilization
Group (CETSA-MS thermal shift) (RRAS2): Stabilization
Group (CETSA-MS thermal shift) (SHCBP1): Destabilization
Group (CETSA-MS thermal shift) (SIK2): Stabilization
Group (CETSA-MS thermal shift) (STK10): Stabilization
Group (CETSA-MS thermal shift) (WTAP): Stabilization
Group (CETSA-MS thermal shift) (ZFR): Stabilization
Group (CETSA-MS thermal shift) (ZNF608): Destabilization
